Assay: Anti-oxidative activity of phenol compound (H2O2 scavenging)
Details: substance/H2O2=1, reacted with H2O2 before H2O2 was measured; versus unreacted H2O2 control; FIG. 1
Procedure: H2O2 was the tested ROS in testing anti-oxidative activity of HPPDA. There are 3 sets in this experiment, including H2O2, HPPDA/H2O2 and ascorbic acid/H2O2, where HPPDA/H2O2=1, ascorbic acid/H2O2=1, and HPPDA, ascorbic were respectively reacted with H2O2 before H2O2 was measured. The control is represented with H2O2 without undergoing any reaction.
Referring to FIG. 1, as the comparison result with control has shown, the concentration of H2O2 was lowered after reacted with ascorbic acid and HPPDA (# for significant difference, p<0.01). Particularly, H2O2 concentration was lowered by ascorbic acid with 30 μM and lowered by HPPDA with 40 μM; this means better H2O2 absorption by HPPDA than ascorbic acid.

## O=C(O)/C=C/C=C/c1ccc(O)cc1 [HPPDA, (2E,4E)-5-(4-hydroxyphenyl)penta-2,4-dienoic acid]
  H2O2 concentration lowered by: 40 µM

## O=C1O[C@H]([C@@H](O)CO)C(O)=C1O [ascorbic acid]
  H2O2 concentration lowered by: 30 µM

Source: patent US8426623B2, “Surface modified nanoparticle and preparation method thereof” (National Tsing Hua University, priority 2010, dated 2013)
